Measured values: patent US20230285504A1, “INHIBITION OF REPERFUSION INJURY WITH A PSD-95 INHIBITOR” (NONO INC., priority 2020, published 2023)
No end group written: not given here.

How the values were obtained:
[1] = Intrinsic fibrinolytic activity
[2] = intravenous over 10 minutes; cited from earlier work
[3] = test system: patients with acute ischemic stroke (AIS) due to a large vessel arterial occlusion selected for endovascular thrombectomy; test: ESCAPE-NA1 phase 3 trial, exploratory re-analyses of dosing time (mRS 0-2 at 90 days); assay type: in vivo, human
Method: The details of the ESCAPE-NA1 methodology are published^2. In-brief, the trial was conducted at 48 sites globally. Adult patients aged 18 or greater with a disabling ischemic stroke (baseline National Institutes of Health Stroke Scale (NIHSS) score^11>5), CT evidence of a small-to-moderate ischemic core (ASPECTS 5-10)^12 and CTA evidence of LVO with a moderate-to-good collateral circulation^13,14 were enrolled in a window of up to 12 hours after the onset of stroke symptoms (last-seen-well time). Enrollment was stratified on the use of intravenous alteplase (yes/no) and declared initial thrombectomy device (stent-retriever or aspiration device). Randomized minimization was conducted within strata aimed to achieve distribution balance with regard to age, sex, baseline NIHSS, site of arterial occlusion, baseline ASPECTS and clinical site. Nerinetide and placebo vials were visually identical other than a unique vial number so that all trial personnel and patients were fully masked to treatment allocation.
After qualifying imaging, patients were treated with rapid EVT using currently available devices. Patients received intravenous alteplase^15 according to usual care following national or regional guidelines, before or during EVT, at a primary hospital prior to transfer or at the endovascular center. Treatment with alteplase was not a requirement for the study and interpretation of treatment guidelines was at the discretion of the treating team. Patients received trial drug (1:1 nerinetide:placebo), as a single dose of 2.6 mg/kg to a maximum dose of 270 mg as soon as possible after randomization. Time targets were imaging to randomization 30 minutes, imaging to study drug administration 60 minutes, and imaging to arterial access/puncture 60 minutes. Targets from imaging to reperfusion were 90th percentile 90 minutes and a median at 75 minutes.^16,17 Times (min) for workflow are summarized in Table 3.
The primary outcome was good outcome at 90 days as defined by a score of 0-2 on the modified Rankin scale (mRS) (range, 0 [no symptoms] to 6 [death]) for the assessment of neurologic functional disability^18-20. Secondary 90 day efficacy outcomes included neurological outcome as defined by the NIHSS of 0-2, functional independence in activities of daily living as defined by a Barthel Index score of 95, and mortality rates. Tertiary outcomes included assessments of stroke volumes on 24-hour imaging (MR or CT brain). Imaging interpretation was conducted at a central core laboratory and clinical data were verified by independent monitors. Infarct volumes were measured by summation of manual planimetric demarcation of infarct on axial imaging (636/1099 (57.9%) on CT and 463/1099 (42.1%) on MRI).
Analyses of efficacy in this stratum were conducted as per the primary analysis of ESCAPE-NA1 on the intention-to-treat (ITT) population, and comprised a logistic regression providing an adjusted estimate of effect size including treatment, the stratification variable of declared initial endovascular approach, and the baseline covariates of age, sex, baseline NIHSS score, baseline ASPECTS, occlusion location and clinical site. Analyses of secondary efficacy outcomes were conducted similarly to the primary analysis. To determine the impact of time metrics of interest on the efficacy of nerinetide (e.g., Onset to randomization, CT to reperfusion, Randomization to reperfusion, and Drug administration to reperfusion), the metrics variables were included in the regression analysis that was otherwise conducted like the primary analysis. Deceased patients were included in the ITT population with a mRS score of 6, a Barthel Index of 0 and NIHSS of 42. Missing primary outcomes (n=9) were imputed as the worst possible score, counted as poor outcome (mRS 3-6 dichotomy) and for mortality analysis, imputed as deaths. All analyses were performed with the use of STATA software (v16.0).

[4] = Plasma half-life in human; assay type: in vivo; conditions: intravenous, human equivalent concentrations, read-out: half-life of nerinetide
Source text: Tat-NR2B9c has a plasma half-life in human plasma of about ten minutes. […] Alteplase (a recombinant form of tPA) has a half-life in human plasma of only about five minutes. But more significant for present purposes is the half-life of plasmin, which is induced by alteplase and other thrombolytic agents and is responsible for cleavage of Tat-NR2B9c. Plasmin has been reported to have a half-life in human plasma of about 4-8 hr.

[5] = test system: transient middle cerebral artery occlusion (tMCAO); test: Dose-response study of nerinetide in transient middle cerebral artery occlusion; assay type: in vivo; conditions: rat tMCAo
Method: FIGS. 9A-B: Nerinetide is effective over a dosage range of at least 0.025-25 mg/kg in a rat tMCAo model in (A) reducing infarction size and (B) reducing neurologic deficit.
The cleavage of full-length nerinetide by high dose alteplase was incomplete, raising the possibility that some active drug could still remain to achieve neuroprotection. This was supported in rats by a dose-response study of nerinetide in a model of transient middle cerebral artery occlusion (tMCAO). Nerinetide and lodoxamide was administered to rats intravenously as a bolus injection, 60 minutes after tMCAo. […] Bars in A and represent mean±SD, with all individual data points plotted. […] Vehicle: PBS alone. Scrambled: ADA peptide incapable of binding PSD-95. Doses as low as 0.25 mg/kg produced a significant reduction in infarct volume (P=0.01) and an improvement in neurological function. Doses as low as 0.025 mg/kg were also effective. Doses up to at least 25 mg/kg were also effective with the highest efficacy being at about 15 mg/kg. The observed wide therapeutic range was attributable to nerinetide, and not to the mast cell degranulation inhibitor lodoxamide, which was present in all solutions to avoid potential hypotension due to histamine release.

[6] = no-alteplase, drug started 22 or more minutes from initial reperfusion
[7] = no-alteplase, long CT to reperfusion interval (>=73.5 minutes)
[8] = no-alteplase, study drug started less than 5 minutes after groin puncture

Q: What does the source list for YGRKKRRQRRRKLSSIESDV [nerinetide]?
A: intrinsic fibrinolytic activity [1]: does not have any intrinsic fibrinolytic activity; plasma half-life [2]: 5 to 10 min; adj. OR for favorable outcome (mRS 0-2 at 90 days) ([3]; no-alteplase stratum, all time windows of 12 h enrollment, nerinetide 2.6 mg/kg vs placebo): 1.757; absolute effect size of nerinetide over placebo [3, 6]: 16.25%; relative effect [3, 6]: 50.0%; adj OR for functional outcome (mRS 0-2) [3, 7]: 5.100; relative effect [3, 7]: 43.3%; unadjusted absolute effect size [3, 7]: 16.52%; adj OR for mRS(0-2) ([3]; no-alteplase, long interval drug infusion start to initial reperfusion (>=22 minutes)): 2.715; adj OR for functional outcome (mRS 0-2) ([3]; no-alteplase, short CT to reperfusion interval (<73.5 minutes)): 0.825; adj OR for mRS(0-2) ([3]; no-alteplase, short interval drug infusion start to initial reperfusion (<22 minutes)): 1.13; adj OR, primary analysis (mRS 0-2) ([3]; no-alteplase, study drug more than 5 minutes after groin puncture): 1.50; adj OR, primary analysis (mRS 0-2) ([3]; no-alteplase, study drug started at any time less than 5 minutes after groin puncture): 2.33; absolute effect size of nerinetide over placebo [3, 8]: 16.56%; relative effect [3, 8]: 36.1%; absolute effect sizes ([3]; no-alteplase, treated in longer intervals from reperfusion (summary)): approximately 16%; absolute effect ([3]; whole no-alteplase stratum): 9.65%; half-life [4]: 5 to 10 min; dose of highest efficacy ([5]; 24 hours): about 15 mg/kg; lowest dose also effective ([5]; 24 hours, doses as low as): 0.025 mg/kg; upper dose also effective ([5]; 24 hours, doses up to at least): at least 25 mg/kg; dose producing significant reduction in infarct volume (P=0.01) and improvement in neurological function ([5]; iv bolus with lodoxamide 60 minutes after tMCAo, 24 hours, doses as low as): 0.25 mg/kg; effective dosage range (reducing infarction size and neurologic deficit) ([5]; iv bolus with lodoxamide 60 minutes after tMCAo, read 24 hours): 0.025-25 mg/kg
